From US7008953B2, “3, 5 Disubstituted indazole compounds, pharmaceutical compositions, and methods for mediating or inhibiting cell proliferation” (Agouron Pharmaceuticals, Inc., priority 2003, dated 2006)

Tests used:
Format in all cases: biochemical
[1] = target: T1, CDK2/Cyclin A (Homo sapiens, UniProt P24941); experiment: Inhibition of CDK2/Cyclin A retinoblastoma kinase activity (apparent Ki); conditions: Rb fragment substrate, 25 μM ATP
T1 construct: made in house; host or cells: CDK2: insect cells (baculovirus); cyclin A: E. coli
Description: Cyclin-dependent kinase activity was measured by quantifying the enzyme-catalyzed, time-dependent incorporation of radioactive phosphate from [^32P]ATP or [^33P]ATP into a protein substrate. Unless noted otherwise, assays were performed in 96-well plates in a total volume of 50 μL, in the presence of 10 mM HEPES (N-[2-hydroxyethyl]piperazine-N′-[2-ethanesulfonic acid]) (pH 7.4), 10 mM MgCl2, 25 μM adenosine triphosphate (ATP), 1 mg/mL ovalbumin, 5 μg/mL leupeptin, 1 mM dithiothreitol, 10 mM beta-glycerophosphate, 0.1 mM sodium vanadate, 1 mM sodium fluoride, 2.5 mM ethylene glycol-bis(β-aminoethyl ethKer)-N,N,N′N′-tetraacetic acid (EGTA), 2% (v/v) dimethylsulfoxide, and 0.03–0.4 μCi [^32/33P]ATP per reaction. Reactions were initiated with enzyme, incubated at 30° C., and terminated after 20 minutes by the addition of ethylenediaminetetraacetic acid (EDTA) to 250 mM. The phosphorylated substrate was then captured on a nitrocellulose or phosphocellulose membrane using a 96-well filtration manifold, and unincorporated radioactivity was removed by repeated washing with 0.85% phosphoric acid. Radioactivity was quantified by exposing the dried membranes to a phosphorimager.
Apparent Ki values were measured by assaying enzyme activity in the presence of different inhibitor compound concentrations and subtracting the background radioactivity measured in the absence of enzyme. Inhibition data were fit to an equation for competitive inhibition using Kaleidagraph (Synergy Software), or were fit to an equation for competitive tight-binding inhibition using the software KineTic (BioKin, Ltd.).
CDK2 was purified using published methodology (Rosenblatt et al., “Purification and Crystallization of Human Cyclin-dependent Kinase 2,” J. Mol. Biol., vol. 230, 1993, pp. 1317–1319) from insect cells that had been infected with a baculovirus expression vector. […] A complex of CDK2 and proteolyzed cyclin A was prepared and purified by gel filtration. The substrate for this assay was the same Rb substrate fragment used for the CDK4 assays, and the methodology of the CDK2/cyclin A and the CDK4/cyclin D3 assays was essentially the same, except that CDK2 was present at 150 nM or 5 nM. Ki values were measured as described above.

[2] = target: T2, checkpoint kinase (CHK1) (Homo sapiens, UniProt O14757); experiment: Panel of protein kinases: CHK1; conditions: method of Davies et al.
T2 sequence (O14757 1-476): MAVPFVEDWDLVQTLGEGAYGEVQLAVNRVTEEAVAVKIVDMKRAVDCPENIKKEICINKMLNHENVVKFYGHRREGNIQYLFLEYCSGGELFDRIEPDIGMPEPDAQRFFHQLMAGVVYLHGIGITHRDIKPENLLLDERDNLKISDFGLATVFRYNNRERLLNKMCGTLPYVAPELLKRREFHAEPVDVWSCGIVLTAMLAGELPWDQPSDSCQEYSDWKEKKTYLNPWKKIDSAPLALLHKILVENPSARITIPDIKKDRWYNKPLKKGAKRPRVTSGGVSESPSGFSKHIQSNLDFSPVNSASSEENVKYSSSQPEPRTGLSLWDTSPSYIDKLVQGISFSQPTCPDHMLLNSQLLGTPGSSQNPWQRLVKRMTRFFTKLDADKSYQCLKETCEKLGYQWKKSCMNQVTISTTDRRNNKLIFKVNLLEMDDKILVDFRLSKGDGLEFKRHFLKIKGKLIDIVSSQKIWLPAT
Description: (§1) The compounds of the present invention were screened against a large panel of protein kinase to determine inhibition activity for CDK as against a variety of protein kinases. The assay was conducted using methods and materials described by Davies, S et al. Specificity and Mechanism of Action of Some Commonly Used Protein Kinase Inhibitors, Biochem J. 351, 95–105 (2000), the contents of which are herein incorporated by reference. The compounds were screened against a panel of protein kinases which include AMP-activiated protein kinase (AMPK), checkpoint kinase (CHK1), casein kinases 1 and 2 (CK1 and CK2), cytoplasmic tyrosine kinase (CSK), dual serine/threonine/tyrosine kinase (DYRK1A), glycogen synthase kinase 3 (GSK3B), c-Jun N-terminal kinase (JNK), lymphocyte kinase (LCK), mitogen-activated protein kinases 2, K-1a, K2 (MAPK2, MAPKAP-K1a, and MAPKAP-K2), MAPK kinase (MKK1, also called MEK), mitogen and stress-activated protein kinase 1 (MSK1), never-in-mitosis kinase 6 (NEK6), p70 ribosomal protein S6 kinase (P70s6K1), 3-phosphoinositide-dependent protein kinase 1 (PDK1), phosphorylase kinase (PHK), protein kinase A (PKA), protein kinase B (PKB, also called Akt), protein kinase C (PKCa), p38-regulated/activated kinase (PRAK), Rho-dependent protein kinase (ROCK-II), stress-activated protein kinase 2a, 2b, 3 and 4 (SAPK-2A or p38, SAPK-2b or p38β2, SAPK3 or p38γ, SAPK4 or p38δ, respectively), and serum- and glucocorticoid-induced kinase (SGK). Compound activity was grouped into categories of weak (<50%), moderate (50–75%) and strong inhibition (>75%).

[3] = target: cytoplasmic tyrosine kinase (CSK) (Homo sapiens, UniProt P41240); experiment: Panel of protein kinases: CSK; conditions: method of Davies et al.
cytoplasmic tyrosine kinase (CSK), sequence (P41240 whole entry, species assumed): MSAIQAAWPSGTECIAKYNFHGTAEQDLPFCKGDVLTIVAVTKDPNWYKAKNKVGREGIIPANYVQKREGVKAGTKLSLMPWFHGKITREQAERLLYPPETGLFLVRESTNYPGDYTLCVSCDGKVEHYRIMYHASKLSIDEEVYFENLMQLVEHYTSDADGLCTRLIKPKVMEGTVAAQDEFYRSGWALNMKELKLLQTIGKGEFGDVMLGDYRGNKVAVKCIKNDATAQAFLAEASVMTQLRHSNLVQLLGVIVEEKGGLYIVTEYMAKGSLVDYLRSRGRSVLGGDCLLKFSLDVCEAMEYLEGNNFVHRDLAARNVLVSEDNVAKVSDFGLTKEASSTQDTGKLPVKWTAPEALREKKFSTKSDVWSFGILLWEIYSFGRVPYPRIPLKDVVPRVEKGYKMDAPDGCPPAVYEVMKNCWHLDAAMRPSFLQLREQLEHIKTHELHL
Description: as §1

[4] = target: dual serine/threonine/tyrosine kinase (DYRK1A) (Homo sapiens, UniProt Q13627); experiment: Panel of protein kinases: DYRK1A; conditions: method of Davies et al.
Description: as §1

[5] = target: glycogen synthase kinase 3 (GSK3B) (Homo sapiens, UniProt P49841); experiment: Panel of protein kinases: GSK3B; conditions: method of Davies et al.
glycogen synthase kinase 3 (GSK3B), sequence (P49841 whole entry, species assumed): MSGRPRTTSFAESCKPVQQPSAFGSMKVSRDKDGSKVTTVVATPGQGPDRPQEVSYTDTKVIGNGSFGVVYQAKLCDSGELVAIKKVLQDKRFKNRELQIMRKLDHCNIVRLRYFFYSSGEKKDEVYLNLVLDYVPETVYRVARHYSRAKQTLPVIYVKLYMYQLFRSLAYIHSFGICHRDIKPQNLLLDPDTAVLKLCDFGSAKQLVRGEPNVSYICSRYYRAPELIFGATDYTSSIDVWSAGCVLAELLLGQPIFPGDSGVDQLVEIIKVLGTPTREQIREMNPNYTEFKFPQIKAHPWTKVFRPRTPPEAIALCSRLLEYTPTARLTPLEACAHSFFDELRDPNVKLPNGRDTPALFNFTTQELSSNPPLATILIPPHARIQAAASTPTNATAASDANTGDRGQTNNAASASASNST
Description: as §1

[6] = target: lymphocyte kinase (LCK) (Homo sapiens, UniProt P06239); experiment: Panel of protein kinases: LCK; conditions: method of Davies et al.
lymphocyte kinase (LCK), sequence (P06239 whole entry, species assumed): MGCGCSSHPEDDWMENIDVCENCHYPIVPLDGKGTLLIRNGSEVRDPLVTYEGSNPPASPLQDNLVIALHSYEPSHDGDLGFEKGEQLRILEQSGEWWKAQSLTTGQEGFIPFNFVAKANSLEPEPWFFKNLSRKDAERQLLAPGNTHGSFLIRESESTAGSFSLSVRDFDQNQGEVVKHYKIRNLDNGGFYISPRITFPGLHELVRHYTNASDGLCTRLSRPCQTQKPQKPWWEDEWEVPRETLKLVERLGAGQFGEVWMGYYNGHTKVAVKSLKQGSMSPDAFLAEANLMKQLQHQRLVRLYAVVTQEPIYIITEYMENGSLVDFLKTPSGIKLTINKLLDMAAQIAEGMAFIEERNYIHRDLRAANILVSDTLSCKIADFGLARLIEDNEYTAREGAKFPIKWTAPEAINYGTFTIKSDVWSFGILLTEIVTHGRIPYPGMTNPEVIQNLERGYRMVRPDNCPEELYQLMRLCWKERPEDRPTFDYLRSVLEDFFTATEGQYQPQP
Description: as §1

[7] = target: mitogen-activated protein kinase 2 (MAPK2) (Homo sapiens, UniProt P28482); experiment: Panel of protein kinases: MAPK2; conditions: method of Davies et al.
mitogen-activated protein kinase 2 (MAPK2), sequence (P28482 whole entry): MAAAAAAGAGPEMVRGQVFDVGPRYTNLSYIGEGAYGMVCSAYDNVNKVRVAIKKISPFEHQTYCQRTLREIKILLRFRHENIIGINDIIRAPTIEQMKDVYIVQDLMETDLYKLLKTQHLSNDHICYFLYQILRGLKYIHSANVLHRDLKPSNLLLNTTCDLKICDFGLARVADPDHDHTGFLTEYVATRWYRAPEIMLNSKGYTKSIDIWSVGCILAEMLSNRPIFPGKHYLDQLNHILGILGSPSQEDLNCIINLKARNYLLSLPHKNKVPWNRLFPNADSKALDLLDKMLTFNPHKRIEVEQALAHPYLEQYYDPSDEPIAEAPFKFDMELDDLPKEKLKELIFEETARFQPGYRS
Description: as §1

[8] = target: MAPKAP-K2 (Homo sapiens, UniProt P49137); experiment: Panel of protein kinases: MAPKAP-K2; conditions: method of Davies et al.
MAPKAP-K2, sequence (P49137 whole entry, species assumed): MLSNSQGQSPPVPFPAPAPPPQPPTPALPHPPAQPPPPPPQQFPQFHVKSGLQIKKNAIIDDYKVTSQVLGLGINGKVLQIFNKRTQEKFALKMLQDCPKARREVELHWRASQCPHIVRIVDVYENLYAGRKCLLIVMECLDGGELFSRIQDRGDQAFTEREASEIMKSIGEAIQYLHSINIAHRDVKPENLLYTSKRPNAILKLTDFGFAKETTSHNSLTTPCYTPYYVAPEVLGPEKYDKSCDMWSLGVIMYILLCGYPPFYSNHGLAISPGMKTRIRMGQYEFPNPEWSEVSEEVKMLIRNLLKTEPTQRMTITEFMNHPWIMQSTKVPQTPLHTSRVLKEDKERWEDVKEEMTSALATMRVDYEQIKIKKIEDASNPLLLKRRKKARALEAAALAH
Description: as §1

[9] = target: MAPK kinase (MKK1, also called MEK) (Homo sapiens, UniProt Q02750); experiment: Panel of protein kinases: MKK1; conditions: method of Davies et al.
MAPK kinase (MKK1, also called MEK), sequence (Q02750 whole entry): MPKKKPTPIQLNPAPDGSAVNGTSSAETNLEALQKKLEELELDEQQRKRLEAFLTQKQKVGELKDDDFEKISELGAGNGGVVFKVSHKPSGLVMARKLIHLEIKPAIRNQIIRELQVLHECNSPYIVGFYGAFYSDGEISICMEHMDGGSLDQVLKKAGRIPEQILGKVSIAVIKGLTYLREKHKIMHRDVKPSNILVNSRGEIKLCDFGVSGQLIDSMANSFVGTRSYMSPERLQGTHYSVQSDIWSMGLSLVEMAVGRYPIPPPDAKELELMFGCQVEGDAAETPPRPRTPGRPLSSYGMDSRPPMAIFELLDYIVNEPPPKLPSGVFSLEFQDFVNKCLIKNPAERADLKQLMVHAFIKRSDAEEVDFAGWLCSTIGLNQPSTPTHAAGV
Description: as §1

[10] = target: protein kinase A (PKA) (Bos taurus, UniProt P00517); experiment: Panel of protein kinases: PKA; conditions: method of Davies et al.
Description: as §1

[11] = target: stress-activated protein kinase 2a (SAPK-2A or p38) (Homo sapiens, UniProt Q16539); experiment: Panel of protein kinases: SAPK-2A; conditions: method of Davies et al.
stress-activated protein kinase 2a (SAPK-2A or p38), sequence (Q16539 whole entry, species assumed): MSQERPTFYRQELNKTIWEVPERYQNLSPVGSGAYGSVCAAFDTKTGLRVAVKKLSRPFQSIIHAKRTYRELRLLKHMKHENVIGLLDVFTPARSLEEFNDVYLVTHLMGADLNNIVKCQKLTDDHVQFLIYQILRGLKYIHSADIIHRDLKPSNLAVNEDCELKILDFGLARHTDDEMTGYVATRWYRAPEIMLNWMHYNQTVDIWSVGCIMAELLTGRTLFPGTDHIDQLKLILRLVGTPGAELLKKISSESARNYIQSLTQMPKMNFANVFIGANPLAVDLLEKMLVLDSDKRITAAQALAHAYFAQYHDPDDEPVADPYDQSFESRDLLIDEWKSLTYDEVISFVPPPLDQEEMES
Description: as §1

[12] = target: stress-activated protein kinase 2b (SAPK-2b or p38β2) (Homo sapiens, UniProt Q15759); experiment: Panel of protein kinases: SAPK-2b; conditions: method of Davies et al.
stress-activated protein kinase 2b (SAPK-2b or p38β2), sequence (Q15759 whole entry): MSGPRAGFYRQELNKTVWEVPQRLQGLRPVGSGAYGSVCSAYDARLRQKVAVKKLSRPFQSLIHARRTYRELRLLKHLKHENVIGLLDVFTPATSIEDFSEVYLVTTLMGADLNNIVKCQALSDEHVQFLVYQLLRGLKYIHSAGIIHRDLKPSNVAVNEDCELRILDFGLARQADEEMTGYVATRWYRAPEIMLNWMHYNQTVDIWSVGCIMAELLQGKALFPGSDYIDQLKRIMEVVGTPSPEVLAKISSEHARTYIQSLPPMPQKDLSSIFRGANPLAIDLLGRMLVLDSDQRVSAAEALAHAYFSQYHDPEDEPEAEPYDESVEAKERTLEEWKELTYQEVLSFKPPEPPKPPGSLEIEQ
Description: as §1

SMILES: CCNCc1cncc(-c2ccc3[nH]nc(-c4nc5ccccc5[nH]4)c3c2)c1C [A]
- Ki [1]: 0.52 nM
- Kinase CHK1 inhibition [2]: + (Moderate inhibition 50–75%)
- Kinase CSK inhibition [3]: − (Weak inhibition <50%)
- Kinase DYRK1A inhibition [4]: ++ (Strong inhibition >75%)
- Kinase GSK3B inhibition [5]: ++ (Strong inhibition >75%)
- Kinase LCK inhibition [6]: ++ (Strong inhibition >75%)
- Kinase MAPK2 inhibition [7]: − (Weak inhibition <50%)
- Kinase MAPKAP-K2 inhibition [8]: − (Weak inhibition <50%)
- Kinase MKK1 inhibition [9]: ++ (Strong inhibition >75%)
- Kinase PKA inhibition [10]: ++ (Strong inhibition >75%)
- Kinase SAPK-2A inhibition [11]: − (Weak inhibition <50%)
- Kinase SAPK-2b inhibition [12]: − (Weak inhibition <50%)

SMILES: CCNCc1cncc(-c2ccc3[nH]nc(-c4nc5c(C(=O)NC)cccc5[nH]4)c3c2)c1C [B]
- Ki [1]: 0.25 nM
- Kinase CHK1 inhibition [2]: + (Moderate inhibition 50–75%)
- Kinase CSK inhibition [3]: − (Weak inhibition <50%)
- Kinase DYRK1A inhibition [4]: ++ (Strong inhibition >75%)
- Kinase GSK3B inhibition [5]: ++ (Strong inhibition >75%)
- Kinase LCK inhibition [6]: ++ (Strong inhibition >75%)
- Kinase MAPK2 inhibition [7]: − (Weak inhibition <50%)
- Kinase MAPKAP-K2 inhibition [8]: − (Weak inhibition <50%)
- Kinase MKK1 inhibition [9]: + (Moderate inhibition 50–75%)
- Kinase PKA inhibition [10]: ++ (Strong inhibition >75%)
- Kinase SAPK-2A inhibition [11]: − (Weak inhibition <50%)
- Kinase SAPK-2b inhibition [12]: − (Weak inhibition <50%)

SMILES: CCNCc1cncc(-c2ccc3[nH]nc(-c4nc5c(SC)cccc5[nH]4)c3c2)c1C [C]
- Ki [1]: 0.8 nM
- Kinase CHK1 inhibition [2]: − (Weak inhibition <50%)
- Kinase CSK inhibition [3]: − (Weak inhibition <50%)
- Kinase DYRK1A inhibition [4]: ++ (Strong inhibition >75%)
- Kinase GSK3B inhibition [5]: ++ (Strong inhibition >75%)
- Kinase LCK inhibition [6]: + (Moderate inhibition 50–75%)
- Kinase MAPK2 inhibition [7]: − (Weak inhibition <50%)
- Kinase MAPKAP-K2 inhibition [8]: − (Weak inhibition <50%)
- Kinase MKK1 inhibition [9]: + (Moderate inhibition 50–75%)
- Kinase PKA inhibition [10]: + (Moderate inhibition 50–75%)
- Kinase SAPK-2A inhibition [11]: − (Weak inhibition <50%)
- Kinase SAPK-2b inhibition [12]: − (Weak inhibition <50%)

SMILES: CCNCc1cncc(-c2ccc3[nH]nc(-c4nc5c(NC(C)=O)cccc5[nH]4)c3c2)c1C [D]
- Ki [1]: 2.4 nM
- Kinase CHK1 inhibition [2]: − (Weak inhibition <50%)
- Kinase CSK inhibition [3]: − (Weak inhibition <50%)
- Kinase DYRK1A inhibition [4]: ++ (Strong inhibition >75%)
- Kinase GSK3B inhibition [5]: ++ (Strong inhibition >75%)
- Kinase LCK inhibition [6]: − (Weak inhibition <50%)
- Kinase MAPK2 inhibition [7]: − (Weak inhibition <50%)
- Kinase MAPKAP-K2 inhibition [8]: − (Weak inhibition <50%)
- Kinase MKK1 inhibition [9]: + (Moderate inhibition 50–75%)
- Kinase PKA inhibition [10]: − (Weak inhibition <50%)
- Kinase SAPK-2A inhibition [11]: − (Weak inhibition <50%)
- Kinase SAPK-2b inhibition [12]: − (Weak inhibition <50%)

SMILES: CCNCc1cncc(-c2ccc3[nH]nc(-c4nc5c(F)cc(F)cc5[nH]4)c3c2)c1C [Example 1, {5-[3-(4,6-Difluoro-1H-benzoimidazol-2-yl)-1H-indazol-5-yl]-4-methyl-pyridin-3-ylmethyl}-ethyl-amine]
- Ki [1]: 0.78 nM
- Kinase CHK1 inhibition [2]: − (Weak inhibition <50%)
- Kinase CSK inhibition [3]: − (Weak inhibition <50%)
- Kinase DYRK1A inhibition [4]: ++ (Strong inhibition >75%)
- Kinase GSK3B inhibition [5]: ++ (Strong inhibition >75%)
- Kinase LCK inhibition [6]: + (Moderate inhibition 50–75%)
- Kinase MAPK2 inhibition [7]: − (Weak inhibition <50%)
- Kinase MAPKAP-K2 inhibition [8]: − (Weak inhibition <50%)
- Kinase MKK1 inhibition [9]: − (Weak inhibition <50%)
- Kinase PKA inhibition [10]: − (Weak inhibition <50%)
- Kinase SAPK-2A inhibition [11]: − (Weak inhibition <50%)
- Kinase SAPK-2b inhibition [12]: − (Weak inhibition <50%)

SMILES: CCNCc1cncc(-c2ccc3[nH]nc(-c4nc5cc(F)ccc5[nH]4)c3c2)c1C [Example 2, Ethyl-{5-[3-(5-fluoro-1H-benzoimidazol-2-yl)-1H-indazol-5-yl]-4-methyl-pyridin-3-ylmethyl}-amine]
- Ki [1]: 0.47 nM
- Kinase CHK1 inhibition [2]: − (Weak inhibition <50%)
- Kinase CSK inhibition [3]: − (Weak inhibition <50%)
- Kinase DYRK1A inhibition [4]: ++ (Strong inhibition >75%)
- Kinase GSK3B inhibition [5]: ++ (Strong inhibition >75%)
- Kinase LCK inhibition [6]: + (Moderate inhibition 50–75%)
- Kinase MAPK2 inhibition [7]: − (Weak inhibition <50%)
- Kinase MAPKAP-K2 inhibition [8]: − (Weak inhibition <50%)
- Kinase MKK1 inhibition [9]: − (Weak inhibition <50%)
- Kinase PKA inhibition [10]: − (Weak inhibition <50%)
- Kinase SAPK-2A inhibition [11]: − (Weak inhibition <50%)
- Kinase SAPK-2b inhibition [12]: − (Weak inhibition <50%)
